In the experiment the target is T1, Human TLR7 (Homo sapiens, UniProt Q9NYK1).
T1 construct: stably and individually express human TLR4, TLR7 or TLR9 full-length ORF cDNAs; host or cells: HEK-293 (ATCC) with ELAM-1 NF-kappaB luciferase reporter
T1 sequence (Q9NYK1 27-1049): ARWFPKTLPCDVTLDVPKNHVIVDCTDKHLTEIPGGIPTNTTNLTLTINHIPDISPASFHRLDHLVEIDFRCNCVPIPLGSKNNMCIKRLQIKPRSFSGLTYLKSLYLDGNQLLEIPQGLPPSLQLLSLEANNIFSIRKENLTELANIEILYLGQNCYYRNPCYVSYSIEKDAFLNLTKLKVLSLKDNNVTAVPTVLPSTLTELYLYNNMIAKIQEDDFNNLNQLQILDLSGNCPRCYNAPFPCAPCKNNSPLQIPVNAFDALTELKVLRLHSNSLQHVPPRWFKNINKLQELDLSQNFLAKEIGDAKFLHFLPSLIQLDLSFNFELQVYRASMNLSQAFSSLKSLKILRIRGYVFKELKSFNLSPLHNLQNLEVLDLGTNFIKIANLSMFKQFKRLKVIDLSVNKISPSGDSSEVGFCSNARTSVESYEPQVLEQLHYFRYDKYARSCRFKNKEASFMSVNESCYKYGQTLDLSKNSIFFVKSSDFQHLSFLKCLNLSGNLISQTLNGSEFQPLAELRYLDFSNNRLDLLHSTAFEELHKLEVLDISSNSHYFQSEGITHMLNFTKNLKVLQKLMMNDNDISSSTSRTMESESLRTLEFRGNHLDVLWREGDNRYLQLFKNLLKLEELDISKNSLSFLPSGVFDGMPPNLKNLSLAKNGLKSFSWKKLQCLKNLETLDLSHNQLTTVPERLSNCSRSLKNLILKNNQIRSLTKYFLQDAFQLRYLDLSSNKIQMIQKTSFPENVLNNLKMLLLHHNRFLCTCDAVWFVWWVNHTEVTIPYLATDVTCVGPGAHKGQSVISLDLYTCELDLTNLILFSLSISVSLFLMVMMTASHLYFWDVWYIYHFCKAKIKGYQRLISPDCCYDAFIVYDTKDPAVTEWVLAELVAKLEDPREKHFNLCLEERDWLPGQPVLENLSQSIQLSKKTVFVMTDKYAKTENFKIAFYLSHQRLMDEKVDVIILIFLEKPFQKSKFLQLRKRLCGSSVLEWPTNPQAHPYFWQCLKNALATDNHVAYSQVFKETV
The experiment is described as follows: HEK-293 human TLR7 NF-kappaB luciferase reporter assay (CL097). The class given is cell-based. As to the method:
Effects on mouse TLR7 were also compared. Cells were stimulated overnight with TLR7/8 agonist CL097 at pre-determined ED70-80: 3 ug/ml for HEK-hTLR7, 1.5 ug/ml for HEK-mTLR7 and 12 ug/ml for HEK-hTLR8, before reading luminescence intensity. Three tests were performed and IC50 value was determined using Graphpad Prism 6 nonlinear regression curve fit.
HEK-293 cells (ATCC) were engineered to stably express a NF-kappaB transcription factor inducible E-selectin (ELAM-1) luciferase reporter derived from the plasmid pGL3 (Promega) containing base pairs −2241 bp to −254 bp from the promoter of the human E-selectin gene (Accession No. NM_000450). These cells were then subsequently engineered to stably and individually express human TLR4, TLR7 or TLR9 full-length ORF cDNAs. Human TLR4 cDNA (Accession No. NM_138554) was cloned into pcDNA 3.0 expression vector (Invitrogen). TLR4 transfected cells were also engineered to express human MD-2 co-receptor [MD-2 cDNA (Accession No. NM_015364) was cloned into the pEF-BOS vector] and were supplemented with 10 nM soluble CD14 (R&D Systems) in the media to optimize LPS responsiveness. Human TLR9 cDNA (Accession No. NM_017442) was cloned into the pBluescript II KS vector (Agilent). Human TLR7 cDNA (Accession No. NM_016562) was obtained from OriGene. HEK-293 cells stably expressing human TLR8 (Accession No. NM_138636) or mouse TLR7 (Accession No. NM_133211) were purchased from InvivoGen and were then stably transfected with pNiFty2(NF-kappaB)-luciferase reporter plasmid (InvivoGen). Each cell type was plated in Dulbecco's modified Eagle's medium (DMEM) containing 10% fetal bovine serum (FBS) at a density of 2.22×10^5 cells/ml into a 384-well plate and incubated for 2 days at 37° C., 5% CO2. Varying concentrations of antagonist compounds were then added. Cells were then incubated for another 30 minutes before adding the appropriate TLR agonist as follows (final concentrations indicated): lipopolysaccharide (LPS; Sigma) at 10 ng/ml for TLR4, CL097 (InvivoGen) at 3 ug/ml for human TLR7 and TLR8 and mouse TLR7, and CvG-2006-2A [sequence: […] (SEQ ID NO: 1) with phosphorothioate backbone, synthesized by Sigma-Aldrich] at 0.6 uM for TLR9.

For two molecules, IC50 results are on record in patent USRE47193E1, “Selectively substituted quinoline compounds” (EISAI R&D MANAGEMENT CO., LTD., priority 2013, dated 2019).

Molecules are shown by their SMILES. “And” between values parts separate entries of the source, which are not always exact repeats. Equal entries are not always repeated. Where two headings read alike, the source gives them in different places.

Consider `CCN(CCO)CCCC(C)Nc1ccnc2cc(Cl)ccc12` (centres unmarked) [HCQ, hydroxychloroquine, reference compound], for which the IC50 (as a rule, the concentration that inhibits the measured activity by half) is, setting by setting: (HEK-hTLR7, CL097 3 ug/ml, average of three tests, read-out: IC50 average) 9.1 µM; (HEK-hTLR7, CL097 3 ug/ml, individual tests 1-3, read-out: IC50) 6.8 µM and 14.5 µM and 5.95 µM.

`C[C@@H]1CN(c2ccc(C#N)c3ncccc23)C[C@H](C(=O)N[C@H]2CNC[C@H]2F)O1.Cl` [ER-899742, (2R,6R)-4-(8-cyanoquinolin-5-yl)-N-[(3S,4R)-4-fluoropyrrolidin-3-yl]-6-methylmorpholine-2-carboxamide hydrochloride]: the IC50 is 0.006 µM (IC50, HEK-293, ligand CL097, analyte NFkB-luciferase (Table 1)); 0.023 µM and 0.026 µM (IC50, HEK-hTLR7, CL097 3 ug/ml, individual tests 1-3); 0.024 µM (IC50 average, HEK-hTLR7, CL097 3 ug/ml, average of three tests).
